Source: patent US11970497B2, “Tricyclic AKR1C3 dependent KARS inhibitors” (Novartis AG, priority 2019, dated 2024)

Assays:
Type in all cases: cell-based
[1] = test system: Hara (NRF2 pathway wild type cell line with low AKR1C3 expression); assay: In vitro cell proliferation assay (CellTiter-Glo), Hara; settings: 72 h; Hara cells, 3 days, CellTiter-Glo, top concentration 10 μM; read-out: HARA Qualified absolute AC50
In short: (§1)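 Luminescent CellTiter-Glo readout after 3-day compound exposure at 37 °C; 8-point 1:5 series, top 10 μM final. Seeding: 800 cells/well for H460, 2000 cells/well for Hara, RPMI-1640 plus 10% FBS. AC50 and percentage activity derived after normalizing to DMSO (1%) and MG132 (30 μM) controls.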

NCI-H1339 = assay: Expanded lung cancer cell line proliferation assay; settings: NCI-H1339, 72 h, average of PrestoBlue and Cell Titer Glo; AKR1C3 5.2 TPM; read-out: Absolute Qualified AC50
Source text: (§2) Cellular Proliferation Assay to Assess Compound Activity in an Expanded Panel of 57 NRF2 Pathway Mutant and Wild Type Lung Cancer Cell Lines.
(§3) Both the PrestoBlue Cell Viability Reagent and Cell Titer Glo were multiplexed together as the final assay readout. PrestoBlue is a cell permeable resazurin-based solution that utilizes the reducing power of living cells to quantitatively measure their proliferation. Cell Titer Glo measures the amount of ATP present, an indicator of metabolically active cells.
(§4) Expanded Lung Cancer Cell Line Proliferation Assay Outline, Analysis and Profiling Results
(§5) Cells were seeded into 384 well assay plates (Greiner Bio-One, Catalog #781080) using the Thermo Scientific Matrix WellMate microplate dispenser and Thermo Scientific Matrix WellMate small bore disposable tubing cartridges (Catalog #201-30002) in 30 μl of growth media (RPMI-1640 supplemented with 10% fetal bovine serum and 1% penicillin/streptomycin) per well (1000 to 2000 cells/well depending on doubling time). Following cell plating, assay plates were placed into tissue culture incubator at 37° C./5% CO2 overnight. The next day one assay plate for each cell line was used for a Day 0 Cell Titer Glo and PrestoBlue readout. 3 μl of PrestoBlue Cell Viability Reagent (Thermo Scientific, Catalog #A13262) was added to each well and then assay plates were incubated at 37° C./5% CO2 for 30 minutes prior to fluorescence readout on the EnVision 2105 multimode plate reader (Perkin Elmer). Following the PrestoBlue readout 18 μl of Cell Titer Glo (Promega, Catalog #G7572) was then added to each well, allowing plates to incubate at room temperature for 10 minutes prior to luminescence readout on the EnVision. Compound was then added to the remaining assay plates (each cell line run in triplicates) using the Labcyte Inc Echo 555 acoustic liquid handler. Compounds were arrayed into a Labcyte Inc Echo qualified 384 well LDV microplate (Cat #LP-0200-GNF10). Compounds were serially diluted 1:3.16 to generate an 8 point dose response for a final top concentration of 1 μM. DMSO (0.3%) was used as the neutral control (NC) and MG132 (30 μM) was used as the active control (AC). 90 nl of compounds were added to 30 μl of cells using the Labcyte Inc Echo 555 acoustic liquid handler for a final DMSO assay concentration of 0.3%. Following compound addition, assay plates were spun down in a tabletop centrifuge at 500 rpm for 1 minute and then placed into tissue culture incubator at 37° C./5% CO2 for 72 h. Following the 72 h incubation, all assay plates were readout using PrestoBlue and Cell Titer Glo using the same conditions previously described for the Day 0 readout. The Day 0 readout (untreated cells) was used to compare to the 72 h DMSO treated samples on each assay plate as a way of tracking each cell line's fold growth. NC1 control based normalization was used for data analysis in Helios, which incorporates the DMSO neutral control (NC) and MG132 active control (AC) for generating dose response curves that are then used to calculate the Absolute Qualified AC50 calls for each compound and cell line.
(§6) NC1 normalization calculation model: NC1: xn=±(x−NC)/(AC−NC)
(§7) +/− is set by the inhibition type parameter setting where NC and AC are averages (mean or median) over the corresponding NC and AC well values. The Qualified Absolute AC50 values for Compound 36 and Compound 40 are listed in the table below and are represented as the average activity in both the PrestoBlue and Cell Titer Glo assay readouts.
(§8) Absolute Qualified AC50 Values Listed Below are a Representation of Each Compounds' Average Activity in Both the PrestoBlue and Cell Titer Glo Assay Readouts.

NCI-H2286 = assay: Expanded lung cancer cell line proliferation assay; settings: Homo sapiens; NCI-H2286, 72 h, average of PrestoBlue and Cell Titer Glo; AKR1C3 0.9 TPM; read-out: Absolute Qualified AC50
Source text: as §2, §3, §4, §5, §6, §7, §8

NCI-H1944 = assay: Expanded lung cancer cell line proliferation assay; settings: Homo sapiens; NCI-H1944, 72 h, average of PrestoBlue and Cell Titer Glo; AKR1C3 3164.3 TPM; read-out: Absolute Qualified AC50
Source text: as §2, §3, §4, §5, §6, §7, §8

NCI-H838 = assay: Expanded lung cancer cell line proliferation assay; settings: Homo sapiens; NCI-H838, 72 h, average of PrestoBlue and Cell Titer Glo; AKR1C3 233 TPM; read-out: Absolute Qualified AC50
Source text: as §2, §3, §4, §5, §6, §7, §8

NCI-H810 = assay: Expanded lung cancer cell line proliferation assay; settings: Homo sapiens; NCI-H810, 72 h, average of PrestoBlue and Cell Titer Glo; AKR1C3 52.5 TPM; read-out: Absolute Qualified AC50
Source text: as §2, §3, §4, §5, §6, §7, §8

NCI-H1373 = assay: Expanded lung cancer cell line proliferation assay; settings: Homo sapiens; NCI-H1373, 72 h, average of PrestoBlue and Cell Titer Glo; AKR1C3 8 TPM; read-out: Absolute Qualified AC50
Source text: as §2, §3, §4, §5, §6, §7, §8

[2] = test system: H460 (NRF2 pathway mutant cell line with high AKR1C3 expression); assay: In vitro cell proliferation assay (CellTiter-Glo), H460; settings: Homo sapiens, NCI-H460, 72 h; H460 cells, 3 days, CellTiter-Glo, top concentration 10 μM; read-out: H460 Qualified absolute AC50
In short: as §1

`CN1c2ccc(F)cc2C(=O)CC12CCN(C(=O)NCc1ccc(F)c(NCCO)c1)CC2` [Example 36, 6′-fluoro-N-(4-fluoro-3-((2-hydroxyethyl)amino)benzyl)-1′-methyl-4′-oxo-3′,4′-dihydro-1′H-spiro[piperidine-4,2′-quinoline]-1-carboxamide] was tested, and the AC50 [1] was 1560 nM, the AC50 (NCI-H1339) was over 1000 nM and the AC50 (NCI-H2286) was over 1000 nM. It also gave an AC50 (NCI-H1944) of 275 nM, an AC50 (NCI-H838) of over 1000 nM and an AC50 (NCI-H810) of over 1000 nM. It also gave an AC50 (NCI-H1373) of over 1000 nM and an AC50 [2] of 78 nM.

`O=C1CC2(CCN(C(=O)NCc3ccc(F)cc3)CC2)Nc2ccc(F)cc21` [Example 40] showed an AC50 [1] of 1790 nM, an AC50 (NCI-H1339) of over 1000 nM and an AC50 (NCI-H2286) of over 1000 nM. For the same compound, the AC50 (NCI-H1944) was 52 nM, the AC50 (NCI-H838) was 641 nM and the AC50 (NCI-H810) was 983 nM. It also gave an AC50 (NCI-H1373) of over 1000 nM and an AC50 [2] of 83 nM.
